Values after ≈ are worked out from the molar mass of the structure shown.
How the values were obtained:
USA300 [1] = assay: MBC assay against USA300; type: cell-based, Staphylococcus aureus
Method: To determine the MBC of propionic acid, USA300 (10^6 CFU/ml) were incubated with propionic acid at various concentrations (1.25-100 mM in PBS) as indicated in each individual experiment in media on a 96-well microplate (100 μl per well) overnight. The control received only PBS. After incubation, the bacteria were diluted 1:10-1:10^6 with PBS. […] To determine the pH effect on the bacterial growth, USA300 in TSB was incubated with 2.5 mM propionic acid on a 96-well microplate (100 μl per well) overnight before spotting on an agar plate.
To determine the minimal bactericidal concentration (MBC) and minimal fungicidal concentration (MFC) of propionic acid, microorganisms (10^6 colony forming units (cfu)/ml) were incubated overnight in media with propionic acid (1.25-2,000 mM) in a 96-well microplate (100 μl per well). The control only received PBS. After incubation, the microorganisms were diluted 1:10-1:10^6 into PBS. […]

C. albicans = assay: Radial diffusion assay against C. albicans; type: cell-based, Candida albicans
Method: (§1) A radial diffusion assay (RDA) was performed as follows. Briefly, microorganisms in the mid-log phase were centrifuged at 12,000×g for 10 min, washed with PBS, and dispersed (10^5 cfu/ml) in agar consisting of 1% (w/v) agarose (Sigma) and 3% (w/v) culture medium in PBS at 42° C. Then, the agar was poured into Petri dishes and solidified. Wells (diameter 3 mm and volume 30 μl) were created by poking a pipette tip into the semi-solidified agar. Propionic acid was serially diluted in PBS to concentrations ranging from 5 to 2,000 mM, and 30 μl aliquots were added to the wells; PBS served as the control. After 3 h of incubation, a 10 ml overlay gel composed of 3% culture medium and 1% agarose was poured onto the plates, where after the plates were incubated overnight and examined for zones of growth inhibition.

USA300 [2] = assay: Measurement of intracellular pH of USA300 (cFSE probe); type: cell-based, Staphylococcus aureus; conditions: 25 mM propionic acid, vs PBS
Method: Measurement of intracellular pH. […] A drop in relative fluorescence indicated the decrease in intracellular pH. […] The fluorescence of the bacteria-free supernatant was measured and deducted from values for the treated suspensions.
Fluorescence was measured for 5 min every min using an excitation wavelength of 490 nm and an emission wavelength of 520 nm. A reduction in relative fluorescence reflected a decrease in intracellular pH. Fluorescence of bacteria-free supernatant obtained by centrifugation at 5,000×g for 5 min after the 5-min assay was measured to correct for background fluorescence. Calibration curves were obtained by incubation of untreated, cFSE-loaded bacteria in buffer containing 50 mM glycine, 50 mM citric acid, 50 mM Na2HPO4.2H2O and 50 mM KCl adjusted to various pH values from 4-10. 1 μM valinomycin and nigericin (Sigma) were added to equilibrate the intracellular and extracellular pH.

E. coli [3] = assay: Minimal bactericidal concentration test against E. coli; type: cell-based, Escherichia coli; conditions: MBC test
Method: (§2) To determine the minimal bactericidal concentration (MBC) and minimal fungicidal concentration (MFC) of propionic acid, microorganisms (10^6 colony forming units (cfu)/ml) were incubated overnight in media with propionic acid (1.25-2,000 mM) in a 96-well microplate (100 μl per well). The control only received PBS. After incubation, the microorganisms were diluted 1:10-1:10^6 into PBS. The dilutions (5 μl) were spotted onto agar media to count cfu; MBC/MFC were determined at 99.9% killing level. To determine the effect of pH on growth of S. aureus USA300, the bacterium was incubated in TSB at pH 5.8 and 6.8, and TSB with 25 mM propionic acid at pH 5.8 and 6.8 (buffered with 4-(2-hydroxyethyl)-1-piperazineethanesulfonic acid (HEPES)) in a 96-well microplate overnight before spotting onto agar plates.

P. acnes = assay: MBC test of propionic acid against P. acnes; type: cell-based, Propionibacterium acnes
Method: as §2

E. coli [4] = assay: Radial diffusion assay against E. coli; type: cell-based, Escherichia coli
Method: as §1

For CCC(=O)O [propionic acid], the “antimicrobial activity against USA300” value (USA300 [1]; 25 mM) was “excellent antimicrobial activity”, the “bacterial numbers of USA300” value (USA300 [1]; 25 mM propionic acid (pH 5.8), 24 h, USA300 10^6 CFU) was 4.9±0.2×10^4 CFU/ml and the “antimicrobial activity against USA300 after buffering” value (USA300 [1]; 25 mM propionic acid (pH 6.8) buffered with ammonium hydroxide) was “remained”. For the same compound, the “concentration that completely killed USA300” value (USA300 [1]; MBC test) was “greater than or equal to 100 mM”, the “concentration that effectively suppressed the growth of USA300” value (USA300 [1]; MBC test, more than 1 log10 reduction) was “greater than 25 mM” and the “concentration that completely killed USA300” value (USA300 [1]; MBC test, listed as Propionic acid) was “greater than 100 mM”. For the same compound, the MBC (USA300 [1]; Staphylococcus aureus, in TSB, USA300 10^6 CFU/ml, overnight) was 25 mM (≈ 1850 µg/mL), the “concentration for a complete growth inhibition of USA300” value (USA300 [1]; dissolved in 4% dimethyl sufoxide, overnight) was 100 Mm and the “MBC (>1 log10 inhibition) against USA300” value (USA300 [1]; dissolved in 4% dimethyl sufoxide, overnight, 0-100 mM) was 25 mM. The “minimum effective concentration for growth inhibition zones, C. albicans” value (C. albicans) was 10 mM, the “intracellular pH of USA300” value (USA300 [2]) was “considerably lowered” and the “concentration that completely killed E. coli” value (E. coli [3]) was at least 50 mM. The “concentration that effectively suppressed the growth of E. coli” value (E. coli [3]) was “greater than 10 mM”, the “concentration at which growth inhibition of P. acnes was detectable” value (P. acnes; MBC tests, 5 to 2,000 mM tested) was “greater than 1000 mM” and the “growth of P. acnes” value (P. acnes; propionic acid 25 mM) was “did not affect the growth”. For the same compound, the “growth of P. acnes” value (P. acnes; propionic acid between 5 and 500 mM, MBC tests) was “did not affect the growth” and the “minimum effective concentration for growth inhibition zones, E. coli” value (E. coli [4]) was 10 mM.
